The record followed here is PMC10923054, “Antiplasmodial peptaibols act through membrane directed mechanisms” (Cell Chemical Biology, 2024).

Each structure is given as a SMILES string. Square brackets hold non-standard residues; d marks the D form. Peptide text beside a SMILES is read from it. Phe(ol) = N[C@H](CO)Cc1ccccc1; Leu(ol) = CC(C)C[C@H](N)CO; dIva = CC[C@@](C)(N)C(=O)O; Aib = CC(C)(N)C(=O)O

Experiment [1] has as its system P. falciparum Dd2. Description: Phenotypic screen: asexual blood stage EC50 determination (SYBR Green I). The class given is cell-based. As to conditions: asynchronous culture, 1% parasitemia, 1% hematocrit, 72 h, SYBR Green I; mean ± SEM, biological triplicate. The method, then:
Asexual blood stage parasites grown in the Chakrabarti laboratory were cultured based on a protocol by Trager and Jensen[57] with some modifications.[35] Culture was maintained at 4% hematocrit with human A+ whole blood obtained from the Florida OneBlood, in RPMI 1640 supplemented with 25 mM HEPES pH 7.4, 26 mM NaHCO3, 2% dextrose, 15 mg/L hypoxanthine, 25 mg/L gentamycin, and 0.5% Albumax II. Incubator conditions remained at 37°C and 5% CO2, 5% O2, 90% N2, or 95% air. For comparison screening using serum vs Albumax II, culture media was changed from RPMI with 0.5% Albumax II to RPMI with 10% human serum and maintained for a minimum of 2 weeks prior to assay use.
Inhibitor EC50 determination in 3D7 and Dd2 was performed as discussed in,[35] based on established protocols.[60] Assays utilized asynchronous culture at 1% parasitemia, 1% hematocrit. Culture was incubated with compound dilutions for 72 h followed by freezing at −80°C to promote lysis, then thawing and incubation for 45 min–1 h with 1× SYBR Green I in a lysis buffer (20 mM Tris-HCL, 0.08% saponin, 5 mM EDTA, and 0.8% Triton X-100). Fluorescence was read 485 nm excitation, 530 nm emission on a Synergy Neo2 multimode reader (BioTek Winsooki, VT) and EC50 curves were generated using CDD Vault (https://www.collaborativedrug.com/).

Experiment [2] relates to P. falciparum 3D7 transcripts. Nature of the experiment: Real-time quantitative PCR validation. The following applies: normalized to serine-tRNA ligase; 3 biological replicates. The class given is cell-based. As for the experimental part: For RT-qPCR validation, total RNA was extracted as previously described from vehicle and HZ NPDG-I treated samples collected for the RNASeq analysis. A total of 500 ng of RNA from each sample was reverse transcribed into cDNA using the SuperScript First-Strand Synthesis System for RT-PCR (Invitrogen, Waltham, MA) with 100 ng of random hexamers. Synthesized cDNA from each of the 3 biological replicates was tested using Select Master Mix (Life Technologies, Carlsbad, CA) with 400 nM of forward and reverse primers using a QuantStudio 7 Flex qPCR machine (Thermo Fisher, Waltham, MA). SYBR fluorescence was normalized to passive reference dye ROX. Ct values were normalized using the […] method by normalizing to housekeeping gene serine-tRNA ligase (PF3D7_0717700) and then normalizing between the treated and untreated controls. PCR parameters included 50°C for 2 min, 95°C for 10 min, followed by 40 cycles of 95°C for 15 s, 55°C for 30 seconds, and 60°C for 30 seconds. Primer pair sequences are listed in full in Table S5.

Experiment [3] relates to PbLuc (P. berghei ANKA GFP-Luc-SMcon sporozoites in HepG2-A16-CD81 cells). It counts as cell-based. As to conditions: 48 h after sporozoite addition, luciferase; mean ± SEM of 3 biological replicates; read-out: PbLuc EC50 (P. berghei liver stage). As for the experimental part: The liver stage was performed as discussed in.[61] Liver-stage inhibitory activity was evaluated in HepG2-A16-CD81 cells and using P. berghei sporozoites (P. berghei ANKA GFP-Luc-SMcon) freshly obtained by dissecting salivary glands of infected A. stephensi mosquitoes. Cells were first seeded in 1536-well plates (Greiner Bio) containing 50 nL of test and control compounds dissolved in DMSO and incubated for 24 h. Sporozoites were then added to each well at a density of 1 × 10^3 cells per well and kept at 37°C for 48 h. Afterwards, luciferin reagent (Promega BrightGlo) was added to each well, and luciferase activity was detected using a Perkin Elmer Envision plate. As a counter screen, HepG2-A16-CD81 cells were seeded as above and exposed to drug in the absence of sporozoites. Viability was evaluated by adding Promega CellTiterGlo® followed by luminescence measurement using a Perkin Elmer Envision plate reader. IC50 values were determined using CDD vault (https://www.collaborativedrug.com/).

For experiment [4], the system named is Attb. It counts as cell-based, P. falciparum. The following applies: Asexual Blood Stage DHODH; mean ± SEM of 3 biological replicates. The method, then: (§1) Parasites grown in the Winzeler laboratory for screening and drug selections were maintained in RPMI 1640 medium supplemented with 0.25% Albumax I, 26 mM sodium bicarbonate, 0.1 mM hypoxanthine, and […] gentamicin. Human O+ whole blood obtained from the Blood Bank of The Scripps Research Institute was used for cultivation (human subjects IRB number: 125933). Blood-stage cultures were kept at 37°C with 5% CO2, 3% O2, and 92% N2. Monitoring of parasitemia and parasite morphology was performed using microscopic evaluation of thin blood smears that were first fixed with methanol, and then stained with Giemsa.
(§2) Cross resistance screening was performed with 0.3% parasitemia, 2.5% hematocrit, dispensed into 1536-well black, clear bottom plates with pre-spotted compound using a MultiFloTM Microplate dispenser (BioTek) at a volume of 8 μL/well. Plates where then incubated at 37°C for 72 h, after which 10× SYBR Green I (Invitrogen) in a lysis buffer (20 mM Tris/HCl, 5 mM EDTA, 0.16% (w/v) saponin, 1.6% (v/v) […]) was then added using a MultiFloTM Microplate dispenser (BioTek) at a volume of 2 μL/well. After 24 h incubation at room temperature, viability was measured via fluorescence using the EnVision® Multilabel Reader (PerkinElmer) (485 nm excitation, 530 nm emission). IC50 values were determined in CDD vault (https://www.collaborativedrug.com/).

Experiment [5] concerns attb ScDHODH. It counts as cell-based, P. falciparum. As to conditions: Asexual Blood Stage DHODH; line expressing S. cerevisiae DHODH; mean ± SEM of 3 biological replicates. As for the experimental part: as §1, §2

Turning to `CC(=O)NC(C)(C)C(=O)N1CCC[C@H]1C(=O)NC(C)(C)C(=O)N[C@@H](C)C(=O)NC(C)(C)C(=O)N[C@@H](C)C(=O)N[C@@H](CCC(N)=O)C(=O)NC(C)(C)C(=O)N[C@H](C(=O)NC(C)(C)C(=O)NCC(=O)N[C@@H](CC(C)C)C(=O)NC(C)(C)C(=O)N1CCC[C@H]1C(=O)N[C@H](C(=O)NC(C)(C)C(=O)NC(C)(C)C(=O)N[C@@H](CCC(=O)O)C(=O)N[C@@H](CCC(N)=O)C(=O)N[C@H](CO)Cc1ccccc1)C(C)C)C(C)C` [Alamethicin, reference compound] (Ac-[Aib]P[Aib]A[Aib]AQ[Aib]V[Aib]GL[Aib]PV[Aib][Aib]EQ[Phe(ol)]; N-terminus assumed), the EC50 (as a rule, the concentration giving half of the maximal effect) in experiment [1] stood at 630 ± 50 nM.

`CC[C@H](C)[C@H](NC(=O)[C@H](CC(C)C)NC(=O)[C@H](CCC(N)=O)NC(=O)[C@@](C)(CC)NC(C)=O)C(=O)NC(C)(C)C(=O)N1CCC[C@H]1C(=O)N[C@](C)(CC)C(=O)N[C@@H](CC(C)C)C(=O)NC(C)(C)C(=O)N1CCC[C@H]1C(=O)N[C@H](CO)CC(C)C` [HZ NPDG-I, harzianin NPDG I] (Ac-[dIva]QLI[Aib]P[dIva]L[Aib]P[Leu(ol)]): in experiment [2], the “RT-qPCR mean fold change, F3D7_0106100” value is reported as −5.86; the “RT-qPCR mean fold change, MSTRG.194.1” value was 1.52; the “RT-qPCR mean fold change, MSTRG.363.2” value is recorded as 2.56; the “RT-qPCR mean fold change, PF3D7_0519200” value is −22.26. Moreover, the “RT-qPCR mean fold change, PF37D_1419800” value in experiment [2] is −7.27. Further, the EC50 in experiment [3] stood at 2700 nM. Moreover, a half-maximal effect in experiment [4] (EC50) was put at 5.7 ± 2.3 nM. For the same molecule, the EC50 in experiment [5] came to 9.1 ± 1.5 nM.
